Reference: patent publication US9623016B2, “Antibacterial compounds” (Emergent Virology LLC, priority 2013, dated 2017)
Read-outs that look alike come from different tables or passages of the source.

Columns and labels:
B. subtilis [1] = system: B. subtilis
Method: (§1) The MIC assay is a technique used to determine the lowest concentration of a particular antibiotic needed to inhibit visible growth of bacteria. In this method, two fold serial dilutions of the compound were prepared in broth media. An inoculum of overnight bacterial cultures will be prepared in the same broth medium. The serial dilution tubes will be inoculated with 0.025 ml of undiluted over-night culture (1:100), a 1×10-2 dilution (1:10,000), or a 1×10-4 dilution (1:1,000,000) of bacterial suspension. Results were recorded after 24 hour incubation at 35° C. without shaking by measuring OD600. The MIC is determined by the lowest concentration of compound where no growth is visible.

S. aureus (Col) [2] = system: S. aureus (Col)
Method: as §1

B. subtilis [3] = experiment: Minimum Bactericidal Concentration (MBC); format: cell-based
Method: (§2) MBC is the lowest concentration of compound required to kill an organism. […] In the case of small colony variants, growth might not occur earlier than 48 hours.

P. aeruginosa 4858 = experiment: Minimum Bactericidal Concentration (MBC); format: cell-based
Method: as §2

S. aureus (8324-5) = experiment: Minimum Bactericidal Concentration (MBC); format: cell-based
Method: as §2

S. aureus (Col) [4] = experiment: Minimum Bactericidal Concentration (MBC); format: cell-based
Method: as §2

S. aureus (USA300) = experiment: Minimum Bactericidal Concentration (MBC); format: cell-based
Method: as §2

S. aureus = experiment: Minimum Bactericidal Concentration (MBC); format: cell-based; conditions: UV-4B
Method: as §2

[5] = system: Staphylococcus aureus USA300; conditions: 200 mg/kg UV-4B orally TID for 10 days, from 3 days before IP challenge; water control 30%
Method: The challenge inoculum included 6.13e4 cfu USA300+3% Hog mucin which causes bacteremia/sepsis within 24-72 h. […] The mice used were 6-8 week old female BALB/c mice in groups of 10. One group of 5 mice was also included to examine the potential toxicity of 3% hog mucin. Endpoint was day 10 post infection, death, or euthanasia Animals displaying severe illness as determined by >30% weight loss, extreme lethargy, or paralysis were euthanized. Observation included daily weight, health checks, and temperatures starting with the initiation of dosing until 10 days post challenge.

## COCCCCCCCCCN1C[C@H](O)[C@@H](O)[C@H](O)[C@H]1CO.Cl [UV-4B, hydrochloric acid salt of N-(9-Methoxynonyl)deoxynojirimycin]
B. subtilis [1]; Table 3
  MIC: 2500 µg/mL
B. subtilis [1]; Table 4
  MIC: 625 µg/mL
B. subtilis [1]; Table 4, 0.02 mg/ml
  growth (OD600): + (+ OD600 <0.05)
B. subtilis [1]; Table 4, 0.04 mg/ml
  growth (OD600): + (+ OD600 <0.05)
B. subtilis [1]; Table 4, 0.08 mg/ml
  growth (OD600): + (+ OD600 <0.05)
B. subtilis [1]; Table 4, 0.16 mg/ml
  growth (OD600): + (+ OD600 <0.05)
B. subtilis [1]; Table 4, 0.31 mg/ml
  growth (OD600): + (+ OD600 <0.05)
B. subtilis [1]; Table 4, 0.63 mg/ml
  growth (OD600): − (− OD600 >0.05)
B. subtilis [1]; Table 4, 2.50 mg/ml
  growth (OD600): − (− OD600 >0.05)
B. subtilis [1]; Table 4, 5 mg/ml
  growth (OD600): − (− OD600 >0.05)
B. subtilis [1]; Table 4, 10 mg/ml
  growth (OD600): − (− OD600 >0.05)
B. subtilis [1]; Table 4, 20 mg/ml
  growth (OD600): − (− OD600 >0.05)
B. subtilis [1]; UV-4B 0.02 mg/ml
  visible growth: +
B. subtilis [1]; UV-4B 0.04 mg/ml
  visible growth: +
B. subtilis [1]; UV-4B 0.08 mg/ml
  visible growth: +
B. subtilis [1]; UV-4B 0.16 mg/ml
  visible growth: +
B. subtilis [1]; UV-4B 0.31 mg/ml
  visible growth: +
B. subtilis [1]; UV-4B 0.63 mg/ml
  visible growth: +
B. subtilis [1]; UV-4B 2.50 mg/ml
  visible growth: −
B. subtilis [1]; UV-4B 5 mg/ml
  visible growth: −
B. subtilis [1]; UV-4B 10 mg/ml
  visible growth: −
S. aureus (Col) [2]; Table 3
  MIC: 2500 µg/mL
S. aureus (Col) [2]; Table 4
  MIC: 625 µg/mL
S. aureus (Col) [2]; Table 4, 0.02 mg/ml
  growth (OD600): + (+ OD600 <0.05)
S. aureus (Col) [2]; Table 4, 0.04 mg/ml
  growth (OD600): + (+ OD600 <0.05)
S. aureus (Col) [2]; Table 4, 0.08 mg/ml
  growth (OD600): + (+ OD600 <0.05)
S. aureus (Col) [2]; Table 4, 0.16 mg/ml
  growth (OD600): + (+ OD600 <0.05)
S. aureus (Col) [2]; Table 4, 0.31 mg/ml
  growth (OD600): + (+ OD600 <0.05)
S. aureus (Col) [2]; Table 4, 0.63 mg/ml
  growth (OD600): − (− OD600 >0.05)
S. aureus (Col) [2]; Table 4, 2.50 mg/ml
  growth (OD600): − (− OD600 >0.05)
S. aureus (Col) [2]; Table 4, 5 mg/ml
  growth (OD600): − (− OD600 >0.05)
S. aureus (Col) [2]; Table 4, 10 mg/ml
  growth (OD600): − (− OD600 >0.05)
S. aureus (Col) [2]; Table 4, 20 mg/ml
  growth (OD600): − (− OD600 >0.05)
S. aureus (Col) [2]; UV-4B 0.02 mg/ml
  visible growth: +
S. aureus (Col) [2]; UV-4B 0.04 mg/ml
  visible growth: +
S. aureus (Col) [2]; UV-4B 0.08 mg/ml
  visible growth: +
S. aureus (Col) [2]; UV-4B 0.16 mg/ml
  visible growth: +
S. aureus (Col) [2]; UV-4B 0.31 mg/ml
  visible growth: +
S. aureus (Col) [2]; UV-4B 0.63 mg/ml
  visible growth: +
S. aureus (Col) [2]; UV-4B 2.50 mg/ml
  visible growth: −
S. aureus (Col) [2]; UV-4B 5 mg/ml
  visible growth: −
S. aureus (Col) [2]; UV-4B 10 mg/ml
  visible growth: −
B. subtilis [3]; UV-4B
  MBC: >10000 µg/mL
B. subtilis [3]; UV-4B 2.50 mg/ml
  growth after re-inoculation on BHI agar: +
B. subtilis [3]; UV-4B 5.00 mg/ml
  growth after re-inoculation on BHI agar: +
B. subtilis [3]; UV-4B 10 mg/ml
  growth after re-inoculation on BHI agar: +
P. aeruginosa 4858; UV-4B
  MBC: >20000 µg/mL
P. aeruginosa 4858; UV-4B 2.50 mg/ml
  growth after re-inoculation on BHI agar: +
P. aeruginosa 4858; UV-4B 5.00 mg/ml
  growth after re-inoculation on BHI agar: +
P. aeruginosa 4858; UV-4B 10 mg/ml
  growth after re-inoculation on BHI agar: +
P. aeruginosa 4858; UV-4B 20 mg/ml
  growth after re-inoculation on BHI agar: +
S. aureus (8324-5); UV-4B 2.50 mg/ml
  growth after re-inoculation on BHI agar: +
S. aureus (8324-5); UV-4B 5.00 mg/ml
  growth after re-inoculation on BHI agar: +
S. aureus (8324-5); UV-4B 10 mg/ml
  growth after re-inoculation on BHI agar: +
S. aureus (8324-5); UV-4B 20 mg/ml
  growth after re-inoculation on BHI agar: −
S. aureus (Col) [4]; UV-4B
  MBC: 2500 µg/mL
S. aureus (Col) [4]; UV-4B 2.50 mg/ml
  growth after re-inoculation on BHI agar: −
S. aureus (Col) [4]; UV-4B 5.00 mg/ml
  growth after re-inoculation on BHI agar: −
S. aureus (Col) [4]; UV-4B 10 mg/ml
  growth after re-inoculation on BHI agar: −
S. aureus (USA300); UV-4B
  MBC: >20000 µg/mL
S. aureus (USA300); UV-4B 2.50 mg/ml
  growth after re-inoculation on BHI agar: +
S. aureus (USA300); UV-4B 5.00 mg/ml
  growth after re-inoculation on BHI agar: +
S. aureus (USA300); UV-4B 10 mg/ml
  growth after re-inoculation on BHI agar: +
S. aureus (USA300); UV-4B 20 mg/ml
  growth after re-inoculation on BHI agar: +
S. aureus
  MBC: 20000 µg/mL
[5]
  survival: 80%
